The source made the active and inactive calls. The rule behind the calls is not given here.
Columns and labels:
Format in all cases: functional
Streptococcus pyogenes [1] = experiment: Antibacterial activity against Streptococcus pyogenes assessed as growth inhibition at 600 ug/ml by NCCLS […] method; conditions: read-out: IZ
Fusarium oxysporum [2] = experiment: Antifungal activity against Fusarium oxysporum assessed as growth inhibition at 900 ug/ml
Escherichia coli [3] = experiment: Antibacterial activity against Escherichia coli assessed as growth inhibition at 900 ug/ml by NCCLS […] method; conditions: read-out: IZ
Fusarium oxysporum [4] = experiment: Antifungal activity against Fusarium oxysporum assessed as growth inhibition at 300 ug/ml
Priestia megaterium [5] = experiment: Antibacterial activity against Bacillus megaterium assessed as growth inhibition at 900 ug/ml by NCCLS […] method
Colletotrichum falcatum [6] = experiment: Antifungal activity against Glomerella tucumanensis assessed as growth inhibition at 1200 ug/ml
Exserohilum rostratum [7] = experiment: Antifungal activity against Setosphaeria rostrata assessed as growth inhibition at 300 ug/ml; conditions: read-out: IZ
Escherichia coli [8] = experiment: Antibacterial activity against Escherichia coli assessed as growth inhibition at 600 ug/ml by NCCLS […] method; conditions: read-out: IZ
Candida albicans [9] = experiment: Antifungal activity against Candida albicans assessed as growth inhibition at 1200 ug/ml; conditions: read-out: IZ
Streptococcus pyogenes [10] = experiment: Antibacterial activity against Streptococcus pyogenes assessed as growth inhibition at 900 ug/ml by NCCLS […] method; conditions: read-out: IZ
Candida albicans [11] = experiment: Antifungal activity against Candida albicans assessed as growth inhibition at 900 ug/ml; conditions: read-out: IZ
Exserohilum rostratum [12] = experiment: Antifungal activity against Setosphaeria rostrata assessed as growth inhibition at 1200 ug/ml; conditions: read-out: IZ
Staphylococcus aureus [13] = experiment: Antibacterial activity against Staphylococcus aureus assessed as growth inhibition at 600 ug/ml by NCCLS […] method; conditions: read-out: IZ
Proteus mirabilis [14] = experiment: Antibacterial activity against Proteus mirabilis assessed as growth inhibition at 600 ug/ml by NCCLS […] method; conditions: read-out: IZ
Klebsiella pneumoniae [15] = experiment: Antibacterial activity against Klebsiella pneumoniae assessed as growth inhibition at 600 ug/ml by NCCLS […] method; conditions: read-out: IZ
Candida albicans [16] = experiment: Antifungal activity against Candida albicans assessed as growth inhibition at 600 ug/ml; conditions: read-out: IZ
Proteus mirabilis [17] = experiment: Antibacterial activity against Proteus mirabilis assessed as growth inhibition at 900 ug/ml by NCCLS […] method; conditions: read-out: IZ
Candida albicans [18] = experiment: Antifungal activity against Candida albicans assessed as growth inhibition at 300 ug/ml; conditions: read-out: IZ
Proteus vulgaris [19] = experiment: Antibacterial activity against Proteus vulgaris assessed as growth inhibition at 900 ug/ml by NCCLS […] method; conditions: read-out: IZ
Bacillus pumilus [20] = experiment: Antibacterial activity against Bacillus pumilus assessed as growth inhibition at 600 ug/ml by NCCLS […] method; conditions: read-out: IZ
Klebsiella aerogenes [21] = experiment: Antibacterial activity against Enterobacter aerogenes assessed as growth inhibition at 600 ug/ml by NCCLS […] method; conditions: read-out: IZ
Proteus vulgaris [22] = experiment: Antibacterial activity against Proteus vulgaris assessed as growth inhibition at 600 ug/ml by NCCLS […] method; conditions: read-out: IZ
Bacillus subtilis [23] = experiment: Antibacterial activity against Bacillus subtilis assessed as growth inhibition at 600 ug/ml by NCCLS […] method; conditions: read-out: IZ
Fusarium oxysporum [24] = experiment: Antifungal activity against Fusarium oxysporum assessed as growth inhibition at 1200 ug/ml
Klebsiella pneumoniae [25] = experiment: Antibacterial activity against Klebsiella pneumoniae assessed as growth inhibition at 900 ug/ml by NCCLS […] method; conditions: read-out: IZ
Staphylococcus aureus [26] = experiment: Antibacterial activity against Staphylococcus aureus assessed as growth inhibition at 900 ug/ml by NCCLS […] method; conditions: read-out: IZ
Colletotrichum falcatum [27] = experiment: Antifungal activity against Glomerella tucumanensis assessed as growth inhibition at 600 ug/ml
Klebsiella aerogenes [28] = experiment: Antibacterial activity against Enterobacter aerogenes assessed as growth inhibition at 900 ug/ml by NCCLS […] method; conditions: read-out: IZ
Exserohilum rostratum [29] = experiment: Antifungal activity against Setosphaeria rostrata assessed as growth inhibition at 900 ug/ml; conditions: read-out: IZ
Bacillus pumilus [30] = experiment: Antibacterial activity against Bacillus pumilus assessed as growth inhibition at 900 ug/ml by NCCLS […] method; conditions: read-out: IZ
Priestia megaterium [31] = experiment: Antibacterial activity against Bacillus megaterium assessed as growth inhibition at 600 ug/ml by NCCLS […] method
Colletotrichum falcatum [32] = experiment: Antifungal activity against Glomerella tucumanensis assessed as growth inhibition at 300 ug/ml
Exserohilum rostratum [33] = experiment: Antifungal activity against Setosphaeria rostrata assessed as growth inhibition at 600 ug/ml; conditions: read-out: IZ
Bacillus subtilis [34] = experiment: Antibacterial activity against Bacillus subtilis assessed as growth inhibition at 900 ug/ml by NCCLS […] method; conditions: read-out: IZ
Fusarium oxysporum [35] = experiment: Antifungal activity against Fusarium oxysporum assessed as growth inhibition at 600 ug/ml
Colletotrichum falcatum [36] = experiment: Antifungal activity against Glomerella tucumanensis assessed as growth inhibition at 900 ug/ml

**Q.** Which results are given for `COc1ccc2c(OCCCN3CCN(Cc4ccccc4)CC3)c(-c3ccccc3)c(=O)oc2c1`?
**A.** zone of inhibition at 600 µg/mL (Streptococcus pyogenes [1]): 6.54 mm; growth inhibition (GI) (Fusarium oxysporum [2]): inactive; zone of inhibition at 900 µg/mL (Escherichia coli [3]): 5.76 mm; growth inhibition (GI) (Fusarium oxysporum [4]): inactive; growth inhibition (GI) (Priestia megaterium [5]): inactive; growth inhibition (GI) (Colletotrichum falcatum [6]): inactive; zone of inhibition at 300 µg/mL (Exserohilum rostratum [7]): 4.25 mm; zone of inhibition at 600 µg/mL (Escherichia coli [8]): 2.98 mm; zone of inhibition at 1200 µg/mL (Candida albicans [9]): 22.3 mm; zone of inhibition at 900 µg/mL (Streptococcus pyogenes [10]): 11.9 mm; zone of inhibition at 900 µg/mL (Candida albicans [11]): 12 mm; zone of inhibition at 1200 µg/mL (Exserohilum rostratum [12]): 24.6 mm; zone of inhibition at 600 µg/mL (Staphylococcus aureus [13]): 7.89 mm; zone of inhibition at 600 µg/mL (Proteus mirabilis [14]): 5.55 mm; zone of inhibition at 600 µg/mL (Klebsiella pneumoniae [15]): 2.56 mm; zone of inhibition at 600 µg/mL (Candida albicans [16]): 5.43 mm; zone of inhibition at 900 µg/mL (Proteus mirabilis [17]): 11.3 mm; zone of inhibition at 300 µg/mL (Candida albicans [18]): 2.87 mm; zone of inhibition at 900 µg/mL (Proteus vulgaris [19]): 12.8 mm; zone of inhibition at 600 µg/mL (Bacillus pumilus [20]): 2.27 mm; zone of inhibition at 600 µg/mL (Klebsiella aerogenes [21]): 3.8 mm; zone of inhibition at 600 µg/mL (Proteus vulgaris [22]): 6.54 mm; zone of inhibition at 600 µg/mL (Bacillus subtilis [23]): 6.56 mm; growth inhibition (GI) (Fusarium oxysporum [24]): inactive; zone of inhibition at 900 µg/mL (Klebsiella pneumoniae [25]): 4.98 mm; zone of inhibition at 900 µg/mL (Staphylococcus aureus [26]): 11.2 mm; growth inhibition (GI) (Colletotrichum falcatum [27]): inactive; zone of inhibition at 900 µg/mL (Klebsiella aerogenes [28]): 7.53 mm; zone of inhibition at 900 µg/mL (Exserohilum rostratum [29]): 15.8 mm; zone of inhibition at 900 µg/mL (Bacillus pumilus [30]): 4.21 mm; growth inhibition (GI) (Priestia megaterium [31]): inactive; growth inhibition (GI) (Colletotrichum falcatum [32]): inactive; zone of inhibition at 600 µg/mL (Exserohilum rostratum [33]): 8.56 mm; zone of inhibition at 900 µg/mL (Bacillus subtilis [34]): 12 mm; growth inhibition (GI) (Fusarium oxysporum [35]): inactive; growth inhibition (GI) (Colletotrichum falcatum [36]): inactive

Source: ChEMBL document CHEMBL3045792, “Synthesis, antimicrobial activity, and molecular modeling of novel 4-(3-(4-benzylpiperazin-1-yl)propoxy)-7-methoxy-3-substituted phenyl-2H-chromen-2-one” (2013)
